# Results published in paper PMC5519928, “Log D versus HPLC derived hydrophobicity: The development of predictive tools to aid in the rational design of bioactive peptoids” (Biopolymers, 2017).
# Non-standard residues stand in square brackets, D forms with d. Residues, ends and D or L forms follow the SMILES beside them. Nspe = C[C@H](NCC(=O)O)c1ccccc1; Nlys = NCCCCNCC(=O)O
# Assays:
# [1] = Average hydrophobicity by analytical reverse-phase HPLC retention; type: physicochemical
# Experimental: To examine the average hydrophobicity of the peptoids, the retention time for from reverse‐phase HPLC was determined on a C18 column using acetonitrile and water, with 0.1% TFA (see Figure 3A). To find log D values, partitioning experiments were carried out, as illustrated by Figure 2. A peptoid solution (between 10 and 100 µM) in PBS was added to an equal volume of octanol and the system allowed to equilibrate under gentle agitation for ∼150 h (as 48 h was not found to be sufficient for the system to reach equilibrium). At this point it is assumed that the peptoid has partitioned between these two phases, such as to minimise its free energy.
# Preparative RP‐HPLC was performed with a semi‐preparative Perkin Elmer Series 200 lc pump fitted with a 785A UV/Vis detector using a SB‐Analytical ODH‐S optimal column (250 mm × 10 mm, 5 µm); flow rate 2 mL min^−1; λ = 250 nm, typical linear gradient elution 0–50% of solvent B over 60 min (A = 0.1% TFA in 95% H2O and 5% MeCN, B = 0.1% TFA in 5% H2O and 95% MeCN). Analytical RP‐HPLC was performed with a Perkin Elmer Series 200 LC pump fitted with a Series 200 UV/Vis detector using a SB‐Analytical ODH‐S optimal column (100 mm × 1.6 mm, 3.5 µm); flow rate 1 mL min^−1; λ = 220 nm, linear gradient elution 0–100% of solvent B over 30 min (A = 0.05% TFA, 95% H2O, 5% MeCN, B = 0.03% TFA, 5% H2O, 95% MeCN).
# Preparative RP-HPLC was performed with a semi-preparative Perkin Elmer Series 200 lc pump fitted with a 785A UV/Vis detector using a SB-Analytical ODH-S optimal column (250 × 10 mm, 5 µm); flow rate 2 ml min^−1; λ = 250 nm, typical linear gradient elution 0-50% of solvent B over 60 min (A = 0.1% TFA in 95% H2O and 5% MeCN, B = 0.1% TFA in 5% H2O and 95% MeCN). Analytical RP-HPLC was performed with a Perkin Elmer Series 200 LC pump fitted with a Series 200 UV/Vis detector using a SB-Analytical ODH-S optimal column (100 × 1.6 mm, 3.5 µm); flow rate 1 ml min^−1; λ = 220 nm, linear gradient elution 0-100% of solvent B over 30 min (A = 0.05% TFA, 95% H2O, 5% MeCN, B = 0.03% TFA, 5% H2O, 95% MeCN).
# Table S3. Data from analytical RP-HPLC for representative compounds of this peptoid library. Analytical HPLC gradient: 0 – 100% solvent B over 30 min at 220 nm (where solvent A = 95% H2O, 5% MeCN, 0.05 % TFA; solvent B = 95% MeCN, 5% H2O, 0.03% TFA).
# [2] = test system: E. coli; type: cell-based; details: Iso-sensitest broth, 96-well, 2-100 µM 1:2 serial dilutions, 38 °C 16 h with shaking, absorbance; lowest concentration completely inhibiting growth; triplicate, minimum of two occasions
# Experimental: (§1) Bacterial cultures were prepared by streaking the bacterial strain from a 4°C- or frozen stock culture to single colonies onto agar plates (containing the appropriate antibiotic for strains carrying antibiotic resistance plasmids) with an inoculation loop, followed by overnight incubation at 37 °C.
# (§2) Primary overnight (o/n) cultures were prepared by inoculating a single colony from a streak plate into 5 mL of LB broth in a screw-capped culture tube, that was placed on a tube rotator at 37 °C (or 30 °C for sensitive strains) for overnight incubation. Before the usage of stock cultures the strains genotype were checked. Primary stocks were stored at 4°C for up to 6 weeks and always replaced from fresh colonies.
# (§3) Fresh cultures used for experiments contained 0.1-0.5 mL o/n culture diluted into 8 mL of fresh medium in a standard test tube. Placed in a shaking water bath or on a tube rotator the bacteria were grown at the required temperature to the required cell density. Frozen stock cultures used for long term storage that can remain viable for 10 years were prepared by mixing 2.5 mL fresh o/n culture with 1.5 mL sterile 80% glycerol in a 5 mL sterile blood tube and stored at -20 °C.
# (§4) MIC values were attained according to the previously described protocol4 and were conducted in 96-well plates (Costar, Fisher Scientific). Using the pre-prepared cultures, an innoculum density of 0.07 at 650 nm was set by comparing the absorbance with 0.5 MacFarland standard (240 μM BaCl2 in 0.18 M H2SO4). The innoculum was then diluted down ten-fold with Iso-sensitest broth (Oxoid, ThermoScientific) before use. Peptoids were initially dissolved in DMSO (5 mM) and then diluted further with Iso-sensitest broth to achieve a concentration range of 4 – 200 µM using 1 : 2 serial dilutions. 50 μl of innoculum and 50 μL of peptoid solution were added to each test well (final concentration range of 2 – 100 µM). Positive control containing only innoculum and Iso-sensitest broth; negative control containing inoculum and serial dilutions of ampicillin (from 250 microgram/mL to 2 microgram per mL); DMSO control containing innoculum and serial dilutions of DMSO; and Iso-sensitest broth were used as a sterile control. […] Quantitative data was attained from absorbance values using a microplate reader.
# [3] = test system: S. aureus; type: cell-based; details: Iso-sensitest broth, 96-well, 2-100 µM 1:2 serial dilutions, 38 °C 16 h with shaking, absorbance; lowest concentration completely inhibiting growth; triplicate, minimum of two occasions
# Experimental: as §1, §2, §3, §4
# [4] = test system: L. mexicana promastigotes; assay: Cytotoxicity assay with Leishmania mexicana M379 promastigotes (alamarBlue); type: cell-based; details: 1 h pre-incubation with compound, then 24 h incubation, alamarBlue 4 h, fluorescence Ex 560/Em 600 nm, triplicate, minimum of two separate occasions, ED50 = median effective dose
# Experimental: Leishmania mexicana (M379) promastigote parasites were maintained at 26 °C in Schneider's Insect medium (Sigma-Aldrich) supplemented with heat-inactivated foetal bovine sera (FBS, 15%; Biosera Ltd). Cells were counted using a Neubauer Improved Haemocytometer. Promastigotes were transformed into axenic amastigotes by a pH and temperature shift as previously described.5 A culture of recently transformed (three days) promastigotes in the late log phase was transferred into Schneider's Insect medium supplemented with 20% heat-inactivated FBS (pH 5.5) at 5 x 10^5 parasites/mL. […] After additional 5–7 days, the parasites should be in the amastigote stage and be ready for cytotoxicity studies and infections.
# Cytotoxicity analyses were performed in 96-well plates (Costar, Fisher Scientific) using alamarBlue (Invitrogen) for cell viability detection as previously described.6 Promastigote and amastigote L. mexicana were pre-incubated with the compounds in triplicate (5 mM stock solutions in DMSO; Amphotericin B was used as a positive control; untreated parasites with DMSO as a negative control) in 50 µL of the corresponding media at 4 x 106 mL-1 for 1 hour. […] Then, 10 µL alamarBlue solution (Invitrogen) was added to each well for an incubation of 4 hours prior to assessing cell viability using a fluorescent plate reader (Biotek; Ex 560 nm / Em 600 nm). […]
structure (smiles),measurement,setting,value
C[C@@H](c1ccccc1)N(CC(N)=O)C(=O)CN(C(=O)CN(CCCCN)C(=O)CN(C(=O)CN(C(=O)CN(CCCCN)C(=O)CN(C(=O)CN(C(=O)CN(CCCCN)C(=O)CN(C(=O)CN(C(=O)CNCCCCN)[C@@H](C)c1ccccc1)[C@@H](C)c1ccccc1)[C@@H](C)c1ccccc1)[C@@H](C)c1ccccc1)[C@@H](C)c1ccccc1)[C@@H](C)c1ccccc1)[C@@H](C)c1ccccc1 [Peptoid 4] (H-[Nlys][Nspe][Nspe][Nlys][Nspe][Nspe][Nlys][Nspe][Nspe][Nlys][Nspe][Nspe]-NH2),RP-HPLC Retention (% MeCN),"[1]; Supplement table 4 (chemical and physical data for peptoid library), % MeCN at elution in RP-HPLC",42 % MeCN
same,HPLC RT,"[1]; Table 2 / main text, chromatographic, RP-HPLC C18 retention time as measure of average hydrophobicity, gradient 0-100% solvent B over 30 min, 220 nm, 1 mL/min, A = 0.05% TFA, 95% H2O, 5% MeCN, B = 0.03% TFA, 5% H2O, 95% MeCN, around pH 2.2",14.9 min
same,MIC E. coli,[2],25 µM
same,MIC S. aureus,[3],2 µM
same,ED50 L. mex prom.,[4],8 µM
